In US6410539B1, “Imidazole derivatives and their use as farnesyl protein transferase inhibitors” (Astrazenca UK Limited, priority 1997, dated 2002) one finds melting point and IC50 data, which are given here for four molecules.

The target of series [1] is T1, Farnesyl protein transferase (FPT) (Homo sapiens, UniProt P49354+P49356).
T1 construct: partially purified from human placenta by ammonium sulphate fractionation; from tissue; host or cells: human placenta
The series is described as follows: In-vitro farnesyl protein transferase assay (farnesylation of Ki-ras with radiolabelled farnesyl pyrophosphate). It counts as biochemical. To be noted: "in the above test"; FPT partially purified from human placenta, substrate Kras (CVIM C-terminal sequence). As to the method: The following stock solutions were used and the assays were conducted in 96 well plates: TRIS Buffer (500 mM TRIS, 50 mM MgCl2.6H2O, pH=8.0); Farnesyl pyrophosphate (6.4 mg/ml); Aprotinin (1.9 mg/ml); Ki-ras (0.5 mg/ml, stored at −80° C.); Acid ethanol (850 ml absolute ethanol+150 ml concentrated HCl).
Farnesyl protein transferase (FPT) was partially purified from human placenta by ammonium sulphate fractionation followed by a single Q-Sepharose™ (Pharmacia, Inc) anion exchange chromatography essentially as described by Ray and Lopez-Belmonte (Ray K P and Lopez-Belmonte J (1992) Biochemical Society Transactions 20 494-497). The substrate for FPT was Kras (CVIM C-terminal sequence). The cDNA for oncogenic val12 variant of human c-Ki-ras-2 4B was obtained from the plasmid pSW11-1 (ATCC). This was then subcloned into the polylinker of a suitable expression vector e.g. pIC147. The Kras was obtained after expression in the E. coli strain, BL21. […]
Assays were performed in 96 well plates as follows: 10 μl of test compound solution was added to each well. […] Precipitated protein was then collected onto glass fibre filter mats (B) using a Tomtec™ cell harvester and tritiated label was measured in a Wallac™1204 Betaplate scintillation counter. […]

On to `COC(=O)[C@H](CCSC)NC(=O)c1ccc(NC(Cn2ccnc2)c2ccc(F)cc2)cc1-c1ccc(F)cc1` (stereo partly drawn) [Example 2, Methyl (2S)-2-{2-(4-fluorophenyl)-4-[1-(4-fluorophenyl)-2-(imidazol-1-yl)ethylamino]benzoylamino}-4methylsulfanylbutyrate], for which the melting point (in general, the temperature of the solid-liquid transition) fell in the range of 94 to 98 °C.
In the case of `CSCCC(NC(=O)c1ccc(NC(Cn2ccnc2)c2ccc(F)cc2)cc1-c1ccccc1)C(=O)O` [Example 6, (2S)-2-{2-Phenyl-4-[1-(4-fluorophenyl-2-imidazol-1-yl)ethylamino]benzoylamino}-4-methylsulfanylbutyric acid], in series [1], the IC50 (as a rule, the concentration that gives 50% inhibition) was approximately 2 nM.
Regarding `CSCC[C@H](NC(=O)c1cc(NC(Cn2ccnc2)c2ccc(F)cc2)ccc1CCc1ccc(F)cc1)C(=O)O` (stereo partly drawn) [Example 8, (2S)-2-{5-[1-(4-Fluorophenyl)-2-(imidazol-1-yl)ethylamino]-2-(4-fluorophenethyl)benzoylamino}-4-methylsulfanylbutyric acid], the melting point lay in the range of 115 to 120 °C.
Same read-out and setting: the result for `CSCC[C@H](NC(=O)c1cc(NC(Cn2ccnc2)c2ccc(F)cc2)ccc1Cc1ccc(F)cc1)C(=O)O` (stereo partly drawn) [Example 10, (2S)-2-{5-[1(4-Fluorophenyl)-2-(imidazol-1-yl)ethylamino]-2-(4-fluorobenzyl)benzoylamino}-4-methylsulfanylbutyric acid] reads 130 to 135 °C.
